{"source": "paper PMC12737022", "about": "“Evaluations of Sex Differences in Dosimetry in Rats Following Perfluorohexanesulfonamide (PFHxSA) Oral Exposure” (Toxics, 2025)", "key": {"[1]": {"assay": "Liver dosimetry of PFHxSA and PFHxS by targeted LC/MS/MS", "format": "in vivo, rat", "conditions": "for PFHxS Male Liver Conc. (wet weight) / PFHxS Female Liver Conc. (wet weight) / concentration at 24 h: individual rats; for PFHxS Male Liver Conc. (wet weight) / concentration at 24 h: male; for concentration at 24 h: Sprague Dawley (Crl:CD(SD)), liver, oral, read-out: PFHxS Male Liver Conc. (wet weight)", "source_text": "The plasma and liver samples for this investigation were provided by Mutlu et al.. The study design, including detailed descriptions of animal handling, procedures for dosing, clinical observations, termination, and collection of tissues, is reported elsewhere and is consistent with the ARRIVE guidelines. Briefly, male and female Sprague Dawley (SD) rats (Crl:CD(SD)) (n = 48/sex, 96 total) were purchased from Charles River Laboratory (Raleigh, NC, USA) and allowed to acclimate for ≥5 days before initial dosing. Rats were 8–10 weeks old at the time of exposure. PFHxSA dosing solutions in corn oil were prepared on Day 0 and used over the course of the study. Rats of both sexes (n = 5/sex, dose, and time point, plus eight vehicle controls per sex) were dosed by oral gavage (5 mL/kg body weight) once daily for five days. […] The formulation concentrations decreased from 100 mg/kg/day at half-log10 intervals until the lowest dose level, which was a full log10 interval below the next higher dose, giving eight dose levels (0.01 to 100 mg/kg/day or 0.025 µmol/kg/day to 250 µmol/kg/day) in addition to vehicle controls. Doses were administered in randomized order within ± 1 h on each day of dosing. […] Rats were euthanized 24 h after the last dose. Blood was collected via cardiac puncture with tripotassium ethylene diamine tetraacetic acid (K3EDTA) as an anti-coagulant and centrifuged to collect cell-free plasma. Liver was collected and flash-frozen in liquid nitrogen. Liver, plasma, and dosing formulation samples were frozen at the USEPA Center for Computational Toxicology and Exposure (CCTE), Durham, NC, USA. Tissue samples (plasma and liver, n = 96 each) were stored at ≤−70 °C prior to extraction; dosing formulation samples (n = 9) were stored at −20 °C.\nDetailed information on solvents and standards used for targeted LC/MS/MS of PFHxSA and PFHxS can be found in SI Text S1 and SI Table S1. Plasma and liver preparations were modified from Conley et al.. Briefly, aliquots of plasma (25 µL) and liver (~10 mg) were spiked with PFOSA as an internal standard, as no isotope-labeled PFHxSA was available. Sample batches included up to 96 samples along with an MB, CCV, and LCS for QC. Commercial plasma (mixed-sex SD rat plasma) and liver (mixed-sex SD rat) were obtained from BioIVT (Westbury, NY, USA). Cold acetonitrile (ACN) with 0.1 M formic acid was used to precipitate proteins. Liver and plasma samples were prepared similarly, except that the livers were homogenized after solvent addition. Plasma samples were vortexed to mix before being chilled at −20 °C, after which samples were centrifuged at 5 °C and 10,000× g. Liver samples were chilled at −80 °C, then homogenized using an Omni International (Kennesaw, GA, USA) Bead Ruptor 24. Liver homogenates were centrifuged at 26,000× g and 5 °C. Supernatants from the extraction of both matrices were removed and stored at −20 °C until analysis. Refer to SI Text S4 for additional experimental details and information on calibration and QC parameters for quantitation of PFHxSA.\nTargeted LC/MS/MS of PFHxSA was performed on a Sciex 4000 QTRAP LC/MS/MS system operated in negative ESI mode with MRM scanning. A Restek (Bellefonte, PA, USA) Raptor Polar X (100 mm × 2 mm, 2.7 µm) column was used for liquid chromatography. Isocratic elution occurred over 10 min with a 30:70 ratio of mobile phase A (10 mM ammonium formate): mobile phase B (60:40 ACN: methanol). Both mobile phases included 0.05% formic acid. The LOQs for PFHxSA were 0.100 µM in plasma and 0.351 µM in liver. Additional details of the instrument method parameters for targeted analysis of PFHxSA are provided in SI Table S5. The MRM transitions for the PFHxSA method are provided in SI Table S6. […]"}, "[2]": {"assay": "In vitro-in vivo extrapolation (IVIVE) to estimate Css, rat", "method": "Intrinsic hepatic clearance (Clint) and fraction unbound in plasma (fup) were calculated from the experimental point estimate data as described in Dobreniecki et al.. Steady-state concentrations (Css) were derived based on zero-order uptake of an assumed daily dose from the gut (assuming 100% intestinal bioavailability) but considering hepatic clearance and non-metabolic renal clearance. Renal clearance was calculated using the glomerular filtration rate (a species-dependent constant) and the fraction unbound in blood (fub), estimated by adjusting the experimental fup for blood/plasma partitioning. The Css calculations, along with underlying species-specific physiologic scalars, are detailed in SI Texts S6 and S7. […]\nhepatocytes). In equation (C), the scalar 2000 is used to adjust the assay cell number to be consistent with units of 1 million cells in the Clint equation.\nText S7 In Vitro-In Vivo Extrapolation (IVIVE) Calculations\nThe pharmacokinetic equation used to estimate expected steady-state concentrations (Css) is based on zero-order uptake of a daily dose from the gut (assuming 100% bioavailability) with both nonmetabolic renal clearance (Clrenal) and hepatic clearance (Clhepatic) (Equation D). The chemical input rate (ko) is the product of the intake dosage and the model body weight; this represents the numerator of Equation D. The Clrenal calculation is shown in the first part of the denominator of Equation D; it is the product of the species-dependent glomerular filtration rate (GFR) and the unbound fraction in blood (fub) of the parent compound. The Clhepatic calculation is shown in the second part of the denominator of Equation D; it is the product of the species-dependent liver blood flow constant, the fub of the parent compound, and the experimentally derived intrinsic clearance (shown in Equation C) divided by the sum of these three values. All values used in Equation D are for first-order conditions of metabolism in the […]"}, "[3]": {"conditions": "PFHxSA 10 mg/kg/day oral 5 days"}, "[4]": {"conditions": "PFHxSA 30 mg/kg/day oral 5 days"}, "[5]": {"conditions": "PFHxSA 100 mg/kg/day oral 5 days"}}, "note": "Several values for one entry are separate records, joined by “and”; a condition that tells them apart may be missing. Identical values can stand only once. Like-named read-outs stand apart in the source and are kept apart here."}
{"compound": "O=S(=O)(O)C(F)(F)C(F)(F)C(F)(F)C(F)(F)C(F)(F)C(F)(F)F", "note": "[PFHxS, perfluorohexane sulfonic acid]", "values": [{"measurement": "PFHxS Male Liver Conc. (wet weight)", "setting": "[1]; PFHxSA 0.3 mg/kg/day oral 5 days", "value": "2.31 ng/mg and 3.68 µM and 0.95 µM and 2.30 µM and 0.85 µM and 1.47 ng/mg and 0.381 ng/mg and 0.921 ng/mg and 0.340 ng/mg"}, {"measurement": "PFHxS Male Liver Conc. (wet weight)", "setting": "[1]; PFHxSA 1 mg/kg/day oral 5 days", "value": "2.73 ng/mg (2×) and 2.38 ng/mg and 3.34 µM and 5.56 µM and 6.81 µM (2×) and 5.95 µM and 1.34 ng/mg and 2.23 ng/mg"}, {"measurement": "PFHxS Male Liver Conc. (wet weight)", "setting": "[1]; PFHxSA 3 mg/kg/day oral 5 days", "value": "4.61 ng/mg and 5.83 ng/mg and 4.92 ng/mg and 3.19 ng/mg and 11.5 µM and 14.6 µM and 12.3 µM and 7.97 µM"}, {"measurement": "PFHxS Female Liver Conc. (wet weight)", "setting": "[1]; [3]", "value": "0.301 ng/mg and 0.776 ng/mg and 0.700 ng/mg and 1.18 ng/mg and 1.13 ng/mg and 0.753 µM and 1.94 µM and 1.75 µM and 2.96 µM and 2.81 µM"}, {"measurement": "PFHxS Male Liver Conc. (wet weight)", "setting": "[1]; [3]", "value": "8.96 ng/mg and 6.84 ng/mg and 9.88 ng/mg and 7.36 ng/mg and 22.4 µM and 17.1 µM and 24.7 µM and 18.4 µM"}, {"measurement": "PFHxS Female Liver Conc. (wet weight)", "setting": "[1]; [4]", "value": "1.72 ng/mg and 2.56 ng/mg and 1.26 ng/mg and 1.35 ng/mg and 2.38 ng/mg and 4.31 µM and 6.39 µM and 3.15 µM and 3.37 µM and 5.96 µM"}, {"measurement": "PFHxS Male Liver Conc. (wet weight)", "setting": "[1]; [4]", "value": "16.3 ng/mg and 15.3 ng/mg and 15.2 ng/mg and 24.0 ng/mg and 40.7 µM and 38.2 µM and 38.3 µM and 60.1 µM"}, {"measurement": "PFHxS Female Liver Conc. (wet weight)", "setting": "[1]; [5]", "value": "4.16 µM and 2.21 µM and 10.2 µM and 5.79 µM and 2.07 µM and 1.66 ng/mg and 0.885 ng/mg and 4.07 ng/mg and 2.32 ng/mg and 0.826 ng/mg"}, {"measurement": "PFHxS Male Liver Conc. (wet weight)", "setting": "[1]; [5]", "value": "67.1 ng/mg and 88.3 ng/mg and 41.9 ng/mg and 34.0 ng/mg and 44.5 ng/mg and 168 µM and 221 µM and 105 µM and 85.1 µM"}, {"measurement": "PFHxS lower than PFHxSA in female liver, on average", "setting": "[1]; female rats, after oral PFHxSA", "value": 2.9, "unit": "fold"}, {"measurement": "concentration at 24 h", "setting": "[1]; rat, PFHxSA 3 mg/kg/day oral 5 days", "value": "3100 ng/g and 7.74 µM"}, {"measurement": "concentration at 24 h", "setting": "[1]; rat, PFHxSA 10 mg/kg/day oral 5 days", "value": "7940 ng/g and 19.9 µM"}, {"measurement": "concentration at 24 h", "setting": "[1]; rat, PFHxSA 30 mg/kg/day oral 5 days", "value": "14500 ng/g and 36.2 µM"}, {"measurement": "Male PFHxS liver concentrations versus females at equivalent dose levels", "setting": "[1]; rat, in vivo", "value": "approximately ten-fold greater"}, {"measurement": "Css (steady-state concentration)", "setting": "[2]; Rat, IVIVE-derived, assumes 1 mg/kg/day exposure", "value": 243, "unit": "µM"}, {"measurement": "CL renal", "setting": "[2]; Rat, non-metabolic, GFR x fub, read-out: Clrenal (renal clearance) (converted)", "value": 0.00167, "unit": "mL/min"}, {"measurement": "PFHxS Css higher than PFHxSA Css", "setting": "[2]; rat", "value": 1.8, "unit": "fold"}]}
